These results are taken from ChEMBL document CHEMBL4251642 (Eur J Med Chem, 2018).

Series [1] deals with Influenza A virus. Briefly: Antiviral activity against Influenza A virus (A/WSN/1933(H1N1)) harboring neuraminidase H275Y mutant infected in MDCK cells assessed as inhibition of virus-induced cytopathic effect after 48 hrs by CellTiter96 Aqueous non-radioactive cell proliferation assay. The series is classed as functional, organism-based. For orientation: Damage to the host cells serves as the signal in cytopathic effect assays.

Series [2] has as its system Influenza A virus. As to the kind of experiment: Antiviral activity against Influenza A virus (A/WSN/1933(H1N1)) harboring neuraminidase H275Y mutant infected in BALB/c mouse assessed as mouse survival at 0.96 umol/day, po for 5 consecutive days measured on day 14 post dose. The series is classed as functional.
Series [3] has as its system Influenza A virus. As to the kind of experiment: Antiviral activity against Influenza A virus (A/WSN/1933(H1N1)) harboring neuraminidase H275Y mutant infected in BALB/c mouse assessed as recovery of mouse weight at 0.96 umol/day, po for 5 consecutive days measured on day 14 post dose. The series is classed as functional, organism-based.
The test system of another series is Mus musculus. As to the kind of experiment: Toxicity in BALB/c mouse infected with Influenza A virus (A/WSN/1933(H1N1)) harboring neuraminidase H275Y mutant assessed as change in body weight at 0.96 umol/day, po for 5 consecutive days. The series is classed as organism-based. The settings on record: in vivo.
Series [4] concerns Influenza A virus. Briefly: Antiviral activity against Influenza A virus (A/WSN/1933(H1N1)) harboring neuraminidase H275Y mutant infected in BALB/c mouse assessed as mouse survival at 0.96 umol/day, po for 5 consecutive days measured on day 10 post dose. The series is classed as functional.

Active and inactive are the calls of the source. The calls are words filed in the database; no cut-off is given here.

A word on the EC50: it is the concentration giving half of the maximal effect.

Take `CCC(CC)[C@H](NC(C)=O)[C@@H]1[C@H](OC(=O)NCCCO)[C@@H](C(=O)O)C[C@H]1NC(=N)N`: in the series on Influenza A virus [1], the EC50 turned out to be 1010 nM.
On to `CCC(CC)[C@H](NC(C)=O)[C@@H]1[C@H](OC(=O)NCCCN)[C@@H](C(=O)O)C[C@H]1NC(=N)N`, for which the EC50 in the series on Influenza A virus [1] amounted to 405 nM.
As for `CCC(CC)[C@H](NC(C)=O)[C@@H]1[C@H](OC(=O)NCCCOCCCc2ccc(O)c(O)c2)[C@@H](C(=O)O)C[C@H]1NC(=N)N`, the result with Influenza A virus [2] and in the series with Influenza A virus [3] was Active. In addition, the Activity result with Mus musculus was “Non-Toxic”. Moreover, the EC50 with Influenza A virus [1] was determined as 71.6 nM.
As to `CCC(CC)[C@H](NC(C)=O)[C@@H]1[C@H](OC(=O)NCCCOC(=O)/C=C/c2ccc(O)c(O)c2)[C@@H](C(=O)O)C[C@H]1NC(=N)N`, the outcome in the series with Influenza A virus [2] and in the series on Influenza A virus [3] was Active. Further, the Activity result with Mus musculus is recorded as “Non-Toxic”. In addition, the EC50 in the series with Influenza A virus [1] amounted to 15.5 nM.
With `CCC(CC)OC1C=C(C(=O)O)C[C@H](N)[C@H]1NC(C)=O` (some centres not stated), the concentration for a half-maximal effect (EC50) in the series with Influenza A virus [1] came out at 3520 nM.
Turning to `CCC(CC)[C@H](NC(C)=O)[C@@H]1[C@H](OC(=O)NCCCNC(=O)/C=C/c2ccc(O)c(O)c2)[C@@H](C(=O)O)C[C@H]1NC(=N)N`, the Survival in the series on Influenza A virus [2] was 90%. Besides, the outcome in the series on Influenza A virus [3] was Active. For the same compound, the Activity entry in the series on Mus musculus is “Non-Toxic”. For the same compound, the EC50 with Influenza A virus [1] was found to be 18.1 nM.
For the compound `CCC(CC)[C@H](NC(C)=O)[C@@H]1[C@H](O)[C@@H](C(=O)O)C[C@H]1NC(=N)N` [PERAMIVIR ANHYDROUS], the EC50 in the series with Influenza A virus [1] was 643 nM.
As for `CCOC(=O)C1=C[C@@H](OC(CC)CC)[C@H](NC(C)=O)[C@@H](N)C1` [OSELTAMIVIR], in the series on Influenza A virus [4], the Survival was found to be 20%.
